# Results from US20050043346A1, “Pyridylpyrrole derivatives active as kinase inhibitors” (Pharmacia Italia S.p.A., priority 2003, published 2005).
# Where “and” joins values, the source holds several entries; their conditions need not be identical. Equal entries are not always repeated. Structures can show the parent of a compound that is named as a salt.
# Biological target: Cdc7/Dbf4 (Homo sapiens, UniProt O00311)
# Experiment: Inhibition assay of Cdc7/Dbf4 activity (Dowex resin capture, MCM2 substrate)
# Type: biochemical
# Settings: Cdc7/Dbf4, MCM2 substrate 6 μM, ATP 2 μM
# Description: The inhibiting activity of putative Cdc7 inhibitors and the potency of selected compounds is determined through a method of assay based on the use of Dowex resin capture technology. The assay consists of the transfer of radioactivity labeled phosphate moiety by the kinase to an acceptor substrate. The resulting 33P-labeled product is separated from unreacted tracer, transferred into a scintillation cocktail and light emitted is measured in a scintillation counter.
# The inhibition assay of Cdc7/Dbf4 activity is performed according to the following protocol. The MCM2 substrate is trans-phosphorylated by the Cdc7/Dbf4 complex in the presence of ATP traced with γ^33-ATP. The reaction is stopped by addition of Dowex resin in the presence of formic acid. Dowex resin particles capture unreacted γ^33-ATP and drag it to the bottom of the well while ^33P phosphorylated MCM2 substrate remains in solution. The supernatant is collected, transferred into Optiplate plates and the extent of substrate phosphorylation is evaluated by β counting.
# The inhibition assay of Cdc7/Dbf4 activity was performed in 96 wells plate according to the following protocol.
# The solvent for test compounds contained 3% DMSO. (final concentration 1%) • 10 μl substrate MCM2 (6 μM final concentration), a mixture of cold ATP (2 μM final concentration) and radioactive ATP (1/5000 molar ratio with cold ATP). • 10 μl enzyme (Cdc7/Dbf4, 2 nM final concentration) that started the reaction. The buffer of the reaction consisted in 50 mM HEPES pH 7.9 containing 15 mM MgCl2, 2 mM DTT, 3 μM NaVO3, 2 mM glycerophosphate and 0.2 mg/ml BSA.
# After incubation for 60 minutes at room temperature, the reaction was stopped by adding to each well 150 μl of Dowex resin in the presence of 150 mM formic acid. After another 60 min incubation, 50 μL of suspension were withdrawn and transferred into 96-well OPTIPLATEs containing 150 μl of MicroScint 40 (Packard); after 5-10 minutes shaking the plates were read for 1 min in a Packard TOP-Count radioactivity reader.
# Experimental data were analyzed by the computer program Assay Explorer using the four parameter logistic equation: y=bottom+(top−bottom)/(1+10^((log IC50−x)*slope)) where x is the logarithm of the inhibitor concentration, y is the response; y starts at bottom and goes to top with a sigmoid shape.
# Cdc7/Dbf4, sequence (O00311 whole entry): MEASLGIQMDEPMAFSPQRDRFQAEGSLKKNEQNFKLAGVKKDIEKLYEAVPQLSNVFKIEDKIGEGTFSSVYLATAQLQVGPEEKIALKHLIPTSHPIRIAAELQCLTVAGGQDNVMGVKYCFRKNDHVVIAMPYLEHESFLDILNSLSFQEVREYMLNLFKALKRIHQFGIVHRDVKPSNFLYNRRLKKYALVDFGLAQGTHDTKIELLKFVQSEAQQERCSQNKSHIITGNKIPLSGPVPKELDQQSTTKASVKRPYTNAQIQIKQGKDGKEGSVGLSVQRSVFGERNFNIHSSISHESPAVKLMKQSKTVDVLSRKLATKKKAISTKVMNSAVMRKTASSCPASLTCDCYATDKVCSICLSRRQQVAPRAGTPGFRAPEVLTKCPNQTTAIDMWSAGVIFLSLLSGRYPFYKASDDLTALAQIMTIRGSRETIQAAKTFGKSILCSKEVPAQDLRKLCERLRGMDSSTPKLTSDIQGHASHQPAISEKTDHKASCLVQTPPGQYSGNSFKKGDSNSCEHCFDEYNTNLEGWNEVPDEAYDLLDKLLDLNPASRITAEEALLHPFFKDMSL
# Cdc7/Dbf4, sequence (Q9UBU7 whole entry partner): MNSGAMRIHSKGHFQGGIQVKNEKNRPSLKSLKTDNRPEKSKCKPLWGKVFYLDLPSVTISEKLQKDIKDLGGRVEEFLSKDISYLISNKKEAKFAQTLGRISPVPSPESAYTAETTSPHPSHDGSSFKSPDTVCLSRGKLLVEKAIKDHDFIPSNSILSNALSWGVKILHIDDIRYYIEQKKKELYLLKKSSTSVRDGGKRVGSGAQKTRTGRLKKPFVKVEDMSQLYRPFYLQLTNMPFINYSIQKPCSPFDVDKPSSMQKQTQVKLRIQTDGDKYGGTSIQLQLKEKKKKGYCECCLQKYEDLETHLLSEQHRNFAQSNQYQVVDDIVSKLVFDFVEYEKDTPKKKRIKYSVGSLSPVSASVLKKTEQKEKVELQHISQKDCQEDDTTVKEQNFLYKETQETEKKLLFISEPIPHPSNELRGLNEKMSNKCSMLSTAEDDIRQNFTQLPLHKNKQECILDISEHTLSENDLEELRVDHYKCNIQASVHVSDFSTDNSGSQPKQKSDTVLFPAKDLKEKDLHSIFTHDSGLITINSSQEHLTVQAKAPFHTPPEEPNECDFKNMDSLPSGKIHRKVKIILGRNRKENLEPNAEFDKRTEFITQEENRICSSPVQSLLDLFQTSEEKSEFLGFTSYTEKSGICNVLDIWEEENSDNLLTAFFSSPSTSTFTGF
row,Compound,IC50
1,"CC1CNC(=O)c2cc(-c3ccncc3)[nH]c21 (single isomer, unassigned) [(7R or 7S)-7-methyl-2-pyridin-4-yl-1,5,6,7-tetrahydro-4H-pyrrolo[3,2-c]pyridin-4-one]",4 nM and 7 nM
2,"O=C1NCCc2[nH]c(-c3ccnc4[nH]ccc34)cc21 [2-(1H-pyrrolo[2,3-b]pyridin-4-yl)-1,5,6,7-tetrahydro-4H-pyrrolo[3,2-c]pyridin-4-one hydrochloride]",16 nM
3,"O=C1NCC2(CC2)c2[nH]c(-c3ccncc3)cc21 [2′-pyridin-4-yl-5′,6′-dihydrospiro[cyclopropane-1,7′-pyrrolo[3,2-c]pyridin]-4′(1′H)-one]",2 nM
4,"Cc1c(-c2ccncc2)[nH]c2c1C(=O)NCC2 [3-methyl-2-pyridin-4-yl-1,5,6,7-tetrahydro-4H-pyrrolo[3,2-c]pyridin-4-one hydrochloride]",3 nM
5,"CC1(C)CNC(=O)c2cc(-c3ccncc3)[nH]c21 [7,7-dimethyl-2-pyridin-4-yl-1,5,6,7-tetrahydro-4H-pyrrolo[3,2-c]pyridin-4-one hydrochloride]",3 nM
6,"O=C1NC(Cc2ccccc2)Cc2[nH]c(-c3ccncc3)cc21 [(6R,6S)-6-benzyl-2-pyridin-4-yl-1,5,6,7-tetrahydro-4H-pyrrolo[3,2-c]pyridin-4-one]",16 nM
7,"CC(C)C1Cc2[nH]c(-c3ccncc3)cc2C(=O)N1 [(6R,6S)-6-isopropyl-2-pyridin-4-yl-1,5,6,7-tetrahydro-4H-pyrrolo[3,2-c]pyridin-4-one hydrochloride]",9 nM
8,"CCC1CNC(=O)c2cc(-c3ccncc3F)[nH]c21 [(7R,7S)-2-(3-fluoropyridin-4-yl)-7-ethyl-1,5,6,7-tetrahydro-4H-pyrrolo[3,2-c]pyridin-4-one]",1 nM
9,"CC(C)CC1CNC(=O)c2cc(-c3ccncc3F)[nH]c21 [(7R,7S)-2-(3-fluoropyridin-4-yl)-7-isobutyl-1,5,6,7-tetrahydro-4H-pyrrolo[3,2-c]pyridin-4-one]",4 nM
10,"O=C1NCC(Cc2ccccc2)c2[nH]c(-c3ccncc3)cc21 [(7R,7S)-7-benzyl-2-pyridin-4-yl-1,5,6,7-tetrahydro-4H-pyrrolo[3,2-c]pyridin-4-one]",17 nM
11,"CC(C)C1CNC(=O)c2cc(-c3ccncc3)[nH]c21 [(7R,7S)-7-isopropyl-2-pyridin-4-yl-1,5,6,7-tetrahydro-4H-pyrrolo[3,2-c]pyridin-4-one]",20 nM
12,"CC1CNC(=O)c2cc(-c3ccncc3)[nH]c21 [(7R,7S)-7-methyl-2-pyridin-4-yl-1,5,6,7-tetrahydro-4H-pyrrolo[3,2-c]pyridin-4-one hydrochloride]",5 nM
13,"CCC(C)C1CNC(=O)c2cc(-c3ccncc3)[nH]c21 [(7R,7S)-7-sec-butyl-2-pyridin-4-yl-1,5,6,7-tetrahydro-4H-pyrrolo[3,2-c]pyridin-4-one]",3 nM

# Second part, the molecule after the results:
row,IC50,Compound
1,20 nM and 9 nM,"O=C1NC(Cc2ccccc2)Cc2[nH]c(-c3ccncc3)cc21 (single isomer, unassigned) [(6R or 6S)-6-benzyl-2-pyridin-4-yl-1,5,6,7-tetrahydro-4H-pyrrolo[3,2-c]pyridin-4-one]"
2,8 nM,"O=C1NCCc2[nH]c(-c3ccncc3F)cc21 [2-(3-fluoropyridin-4-yl)-1,5,6,7-tetrahydro-4H-pyrrolo[3,2-c]pyridin-4-one hydrochloride]"
3,7 nM,"CCC1(CC)CNC(=O)c2cc(-c3ccncc3)[nH]c21 [7,7-diethyl-2-pyridin-4-yl-1,5,6,7-tetrahydro-4H-pyrrolo[3,2-c]pyridin-4-one hydrochloride]"
4,26 nM,"O=C1NC(CCc2ccccc2)Cc2[nH]c(-c3ccncc3)cc21 [(6R,6S)-6-(2-phenylethyl)-2-pyridin-4-yl-1,5,6,7-tetrahydro-4H-pyrrolo[3,2-c]pyridin-4-one hydrochloride]"
5,8 nM,"O=C1NC(C2CCCCC2)Cc2[nH]c(-c3ccncc3)cc21 [(6R,6S)-6-cyclohexyl-2-pyridin-4-yl-1,5,6,7-tetrahydro-4H-pyrrolo[3,2-c]pyridin-4-one]"
6,2 nM,"O=C1NC(C2CC2)Cc2[nH]c(-c3ccncc3)cc21 [(6R,6S)-6-cyclopropyl-2-pyridin-4-yl-1,5,6,7-tetrahydro-4H-pyrrolo[3,2-c]pyridin-4-one]"
7,14 nM,"C[C@H]1Cc2[nH]c(-c3ccncc3)cc2C(=O)N1 [(6S)-6-methyl-2-pyridin-4-yl-1,5,6,7-tetrahydro-4H-pyrrolo[3,2-c]pyridin-4-one]"
8,3 nM,"CC(C)C1CNC(=O)c2cc(-c3ccncc3F)[nH]c21 [(7R,7S)-2-(3-fluoropyridin-4-yl)-7-isopropyl-1,5,6,7-tetrahydro-4H-pyrrolo[3,2-c]pyridin-4-one]"
9,5 nM,"CC(C)CC1CNC(=O)c2cc(-c3ccncc3)[nH]c21 [(7R,7S)-7-isobutyl-2-pyridin-4-yl-1,5,6,7-tetrahydro-4H-pyrrolo[3,2-c]pyridin-4-one hydrochloride]"

# Biological target: cdk2/Cyclin A (Homo sapiens, UniProt P24941)
# Experiment: Inhibition assay of cdk2/Cyclin A activity (SPA)
# Type: biochemical
# Settings: Cyclin A/CDK2 complex, histone H1 substrate, 10 μM ATP
# Description: The inhibiting activity of putative cdk/cyclin inhibitors and the potency of selected compounds may be determined through a method of assay based on the use of the SPA technology (Amersham Pharmacia Biotech).
# The assay consists of the transfer of radioactivity labelled phosphate moiety by the kinase to a biotinylated substrate. The resulting 33P-labelled biotinylated product is allowed to bind to streptavidin-coated SPA beads (biotin capacity 130 pmol/mg), and light emitted was measured in a scintillation counter.
# Kinase reaction: 4 μM in house biotinylated histone H1 (Sigma #H-5505) substrate, 10 μM ATP (0.1 microCi P^33γ-ATP), 1.1 nM Cyclin A/CDK2 complex, inhibitor in a final volume of 30 μl buffer (TRIS HCl 10 mM pH 7.5, MgCl2 10 mM, DTT 7.5 mM+0.2 mg/ml BSA) were added to each well of a 96 U bottom. After incubation for 60 min at room temperature, the reaction was stopped by addition of 100 μl PBS buffer containing 32 mM EDTA, 500 μM cold ATP, 0.1% Triton X100 and 10 mg/ml streptavidin coated SPA beads. After 20 min incubation, 110 μL of suspension were withdrawn and transferred into 96-well OPTIPLATEs containing 100 μl of 5M CsCl. After 4 hours, the plates were read for 2 min in a Packard TOP-Count radioactivity reader.
# IC50 determination: inhibitors were tested at different concentrations ranging from 0.0015 to 10 μM. […]
row,IC50,Compound
1,40 nM,"O=C1NCCc2[nH]c(-c3ccnc(NC4CCCC4)c3)cc21 [2-[2-(cyclopentylamino)pyridin-4-yl]-1,5,6,7-tetrahydro-4H-pyrrolo[3,2-c]pyridin-4-one]"
